Data as given in US4292317A, “1,4-Dihydro-quinoline-3-carboxylic acid derivatives, process for their preparation and compositions containing them” (Laboratorie Roger Bellon, priority 1977, dated 1981).
Converted amounts (≈) assume the structure as drawn. Where two headings read alike, the source gives them in different places.

Tests used:
Strept. pyogenes A. 65 = test: Systemic infection in mice; format: in vivo; settings: Streptococcus pyogenes, A.65, po, 168 h
Description: (§1) The activity of the compounds according to the invention against systemic infections in mice, caused by Staphylococcus 50,774, Streptococcus pyogenes A 65, Pseudomonas aeruginosa No. 12 and Escherichia coli P 5101, has been studied.
(§2) The infections were set up by intraperitoneal injection of a suspension of the bacterial culture corresponding to the germ studied. The products were administered orally at the time of injection, and 6 hours later. […] Aureus and for 7 days for the other germs.
(§3) Oxolinic acid was used as the reference substance.

Escherichia coli P 5101 = test: Systemic infection in mice; format: in vivo; settings: P5101, po, 168 h
Description: as §1, §2, §3

[1] = test system: Pseudomonas aeruginosa No. 12; test: Systemic infection in mice; format: in vivo; settings: NO.12, po, 168 h
Description: as §1, §2, §3

Staph. aureus 50,774 = test: Systemic infection in mice; format: in vivo; settings: Staphylococcus aureus, po, 336 h
Description: as §1, §2, §3

Esch. coli 54.127 O.M.S. = test: M.I.C. in vitro, nutrient agar dilution; format: cell-based; settings: Escherichia coli, 18 h, read-out: M.I.C.
Description: (§4) After sterilisation at 120° C., the pH was 6.8.
(§5) The minimum inhibitory concentrations (M.I.C.) were determined by dilution of the test compounds in this mixture, the concentration ranging from 0.05 to 100 μg/cm^3 in a geometric progression with a factor of 2.
(§6) The inoculation of the dishes was carried out by means of a multiple inoculator with 10^-3 dilutions of 18 hour old broth cultures.
(§7) The dishes were placed in an oven at 37° C. and the readings were taken afer an incubation time of 18 hours. The M.I.C. was taken as the lowest concentration which inhibited a culture.

Klebs. pneum. 10.031 = test: M.I.C. in vitro, nutrient agar dilution; format: cell-based; settings: 18 h, read-out: M.I.C.
Description: as §4, §5, §6, §7

Bord. bronchis. 4.617 = test: M.I.C. in vitro, nutrient agar dilution; format: cell-based; settings: 18 h, read-out: M.I.C.
Description: as §4, §5, §6, §7

Strepto A 561 = test: M.I.C. in vitro, nutrient agar dilution; format: cell-based; settings: 18 h
Description: as §4, §5, §6, §7

Ps. aeruginosa A.22 = test: M.I.C. in vitro, nutrient agar dilution; format: cell-based; settings: Pseudomonas aeruginosa, 18 h, read-out: M.I.C.
Description: as §4, §5, §6, §7

B. subtilis = test: M.I.C. in vitro, nutrient agar dilution; format: cell-based; settings: Bacillus subtilis, 18 h, read-out: M.I.C.
Description: as §4, §5, §6, §7

Serratia = test: M.I.C. in vitro, nutrient agar dilution; format: cell-based; settings: 18 h, read-out: M.I.C.
Description: as §4, §5, §6, §7

Pr. morganii A.236 = test: M.I.C. in vitro, nutrient agar dilution; format: cell-based; settings: Morganella morganii, 18 h, read-out: M.I.C.
Description: as §4, §5, §6, §7

Providentia 0223 = test: M.I.C. in vitro, nutrient agar dilution; format: cell-based; settings: 18 h, read-out: M.I.C.
Description: as §4, §5, §6, §7

Esch. coli 95 I.S.M. = test: M.I.C. in vitro, nutrient agar dilution; format: cell-based; settings: Escherichia coli, 18 h, read-out: M.I.C.
Description: as §4, §5, §6, §7

Pr. mirabilis Nig = test: M.I.C. in vitro, nutrient agar dilution; format: cell-based; settings: Proteus mirabilis, 18 h, read-out: M.I.C.
Description: as §4, §5, §6, §7

Staph. 209 P = test: M.I.C. in vitro, nutrient agar dilution; format: cell-based; settings: 18 h, read-out: M.I.C.
Description: as §4, §5, §6, §7

Esch. coli 111 B4 = test: M.I.C. in vitro, nutrient agar dilution; format: cell-based; settings: Escherichia coli, 18 h
Description: as §4, §5, §6, §7

S. enteritidis Danysz = test: M.I.C. in vitro, nutrient agar dilution; format: cell-based; settings: Salmonella enterica, 18 h, read-out: M.I.C.
Description: as §4, §5, §6, §7

Pr. vulgaris 12-53 = test: M.I.C. in vitro, nutrient agar dilution; format: cell-based; settings: Proteus vulgaris, 1253, 18 h, read-out: M.I.C.
Description: as §4, §5, §6, §7

Sh. sonnei I.P.S. = test: M.I.C. in vitro, nutrient agar dilution; format: cell-based; settings: Shigella sonnei, 18 h, read-out: M.I.C.
Description: as §4, §5, §6, §7

Arizona 6.211 = test: M.I.C. in vitro, nutrient agar dilution; format: cell-based; settings: 18 h, read-out: M.I.C.
Description: as §4, §5, §6, §7

Ps. aeruginosa 72.345 = test: M.I.C. in vitro, nutrient agar dilution; format: cell-based; settings: Pseudomonas aeruginosa, 18 h, read-out: M.I.C.
Description: as §4, §5, §6, §7

Strepto D.M. 19 = test: M.I.C. in vitro, nutrient agar dilution; format: cell-based; settings: 18 h, read-out: M.I.C.
Description: as §4, §5, §6, §7

Staph. 9.144 = test: M.I.C. in vitro, nutrient agar dilution; format: cell-based; settings: 18 h, read-out: M.I.C.
Description: as §4, §5, §6, §7

S. oranienburg 1066 = test: M.I.C. in vitro, nutrient agar dilution; format: cell-based; settings: Salmonella enterica, 18 h, read-out: M.I.C.
Description: as §4, §5, §6, §7

Salm. typhi 0901 = test: microbe, parasite or virus in culture; format: cell-based; settings: Salmonella enterica, 18 h
Description: as §4, §5, §6, §7

## CCn1cc(C(=O)O)c(=O)c2cc(F)c(N3CCN(C)CC3)cc21 [Example 20, 1-Ethyl-6-fluoro-7-(4-methylpiperazinyl)-4-oxo-1,4-dihydro-quinoline-3-carboxylic acid]
Strept. pyogenes A. 65
  ED50: 65 mg/kg
  ED90: 103 mg/kg
Escherichia coli P 5101
  ED50: 1.8 mg/kg
  ED90: 2.8 mg/kg
[1]
  ED50: 7.8 mg/kg
  ED90: 11.5 mg/kg
Staph. aureus 50,774
  ED50: 2.9 mg/kg
  ED90: 9.3 mg/kg

## CN1CCN(c2cc3c(cc2F)c(=O)c(C(=O)O)cn3C)CC1 [Example 31, 6-Fluoro-1-methyl-7-(4-methylpiperazinyl)-4-oxo-1,4-dihydro-quinoline-3-carboxylic acid]
Esch. coli 54.127 O.M.S.; Table III, Esch. coli 54.127 O.M.S.
  MIC: 0.8 µg/mL (≈ 2.51 µM)
Klebs. pneum. 10.031; Table III, Klebs. pneum. 10.031
  MIC: 0.8 µg/mL (≈ 2.51 µM)
Bord. bronchis. 4.617; Table III, Bord. bronchis. 4.617
  MIC: 6.25 µg/mL (≈ 19.6 µM)
Strepto A 561; Table III, Strepto A 561
  MIC: 12.5 µg/mL (≈ 39.1 µM)
Ps. aeruginosa A.22; Table III, Ps. aeruginosa A.22
  MIC: 1.6 µg/mL (≈ 5.01 µM)
B. subtilis; Table III, B. Subtilis
  MIC: 0.8 µg/mL (≈ 2.51 µM)
Serratia; Table III
  MIC: 0.2 µg/mL (≈ 0.626 µM)
Pr. morganii A.236; Table III, Pr. morganii A. 236
  MIC: 0.2 µg/mL (≈ 0.626 µM)
Providentia 0223; Table III, Providentia 0223
  MIC: 0.8 to 1.6 µg/mL (≈ 2.51 to 5.01 µM)
Esch. coli 95 I.S.M.; Table III, Esch. coli 95 I.S.M.
  MIC: 0.1 µg/mL (≈ 0.313 µM)
Pr. mirabilis Nig; Table III, Pr. mirabilis Nig
  MIC: 0.4 µg/mL (≈ 1.25 µM)
Staph. 209 P; Table III, Staph. 209 P
  MIC: 0.4 µg/mL (≈ 1.25 µM)
Esch. coli 111 B4; Table III, Esch. coli 111 B4
  MIC: 0.8 µg/mL (≈ 2.51 µM)
S. enteritidis Danysz; Table III, S. enteritidis Danysz
  MIC: 0.4 µg/mL (≈ 1.25 µM)
Pr. vulgaris 12-53; Table III, Pr. vulgaris 12-53
  MIC: 0.2 µg/mL (≈ 0.626 µM)
Sh. sonnei I.P.S.; Table III, Sh. sonnei I.P.S.
  MIC: 0.2 to 0.4 µg/mL (≈ 0.626 to 1.25 µM)
Arizona 6.211; Table III, Arizona 6.211
  MIC: 0.2 to 0.4 µg/mL (≈ 0.626 to 1.25 µM)
Ps. aeruginosa 72.345; Table III, Pd. aeruginosa 72.345
  MIC: 1.6 µg/mL (≈ 5.01 µM)
Strepto D.M. 19; Table III, Strepto D.M. 19
  MIC: 3.1 to 6.2 µg/mL (≈ 9.71 to 19.4 µM)
Staph. 9.144; Table III, Staph. 9.144
  MIC: 0.4 µg/mL (≈ 1.25 µM)
S. oranienburg 1066; Table III, S. oranienburg 1066
  MIC: 6.2 to 12.5 µg/mL (≈ 19.4 to 39.1 µM)
Salm. typhi 0901; Table III, Salm. typhi 0901
  MIC: 0.4 µg/mL (≈ 1.25 µM)

## CCn1cc(C(=O)O)c(=O)c2cc(Cl)c(N3CCNCC3)cc21 [Example 3, 6-Chloro-1-ethyl-4-oxo-7-piperazinyl-1,4-dihydro-quinoline-3-carboxylic acid]
Esch. coli 54.127 O.M.S.; Table 2, Esch. coli 54.127 O.M.S. (Gram negative)
  MIC: 0.2 µg/mL (≈ 0.596 µM)
Klebs. pneum. 10.031; Table 2, Klebs. pneum. 10.031 (Gram negative)
  MIC: 0.2 µg/mL (≈ 0.596 µM)
Bord. bronchis. 4.617; Table 2, Bord. bronchis. 4.617 (Gram negative)
  MIC: 0.2 to 12.5 µg/mL (≈ 0.596 to 37.2 µM)
Strepto A 561; Table 2, Strepto A 561 (Gram positive)
  MIC: 6.2 µg/mL (≈ 18.5 µM)
Ps. aeruginosa A.22; Table 2, Ps. aeruginosa A.22 (Gram negative)
  MIC: 1.6 to 3.1 µg/mL (≈ 4.76 to 9.23 µM)
B. subtilis; Table 2, B. subtilis (Gram positive)
  MIC: 0.2 to 0.4 µg/mL (≈ 0.596 to 1.19 µM)
Serratia; Table 2, Berratia (Gram negative)
  MIC: 3.1 to 12.5 µg/mL (≈ 9.23 to 37.2 µM)
Pr. morganii A.236; Table 2, Pr. morganii A.236 (Gram negative)
  MIC: 0.2 µg/mL (≈ 0.596 µM)
Providentia 0223; Table 2, Providentia 0223 (Gram negative)
  MIC: 1.6 to 3.1 µg/mL (≈ 4.76 to 9.23 µM)
Esch. coli 95 I.S.M.; Table 2, Esch. coli 95 I.S.M. (Gram negative)
  MIC: 0.2 µg/mL (≈ 0.596 µM)
Pr. mirabilis Nig; Table 2, Pr. mirabilis Nig (Gram negative)
  MIC: 0.2 µg/mL (≈ 0.596 µM)
Staph. 209 P; Table 2, Staph. 209 P (Gram positive)
  MIC: 0.4 to 0.8 µg/mL (≈ 1.19 to 2.38 µM)
Esch. coli 111 B4; Table 2, Esch. coli 111 B4 (Gram negative)
  MIC: 0.2 µg/mL (≈ 0.596 µM)
S. enteritidis Danysz; Table 2, S. enteritidis Danysz (Gram negative)
  MIC: 0.2 µg/mL (≈ 0.596 µM)
Pr. vulgaris 12-53; Table 2, Pr. vulgaris 12-53 (Gram negative)
  MIC: 0.2 µg/mL (≈ 0.596 µM)
Sh. sonnei I.P.S.; Table 2, Sh. sonnei I.P.S. (Gram negative)
  MIC: 0.2 µg/mL (≈ 0.596 µM)
Arizona 6.211; Table 2, Arizona 6.211 (Gram negative)
  MIC: 0.2 µg/mL (≈ 0.596 µM)
Ps. aeruginosa 72.345; Table 2, Ps. aeruginosa 72.345 (Gram negative)
  MIC: 1.6 to 3.1 µg/mL (≈ 4.76 to 9.23 µM)
Strepto D.M. 19; Table 2, Strepto D.M. 19 (Gram positive)
  MIC: 1.6 to 3.1 µg/mL (≈ 4.76 to 9.23 µM)
Staph. 9.144; Table 2, Staph. 9.144 (Gram positive)
  MIC: 0.4 µg/mL (≈ 1.19 µM)
S. oranienburg 1066; Table 2, S. oranienburg 1066 (Gram negative)
  MIC: 6.2 to 12.5 µg/mL (≈ 18.5 to 37.2 µM)
Salm. typhi 0901; Table 2, Salm. typhi 0901 (Gram negative)
  MIC: 0.2 µg/mL (≈ 0.596 µM)
